The target of one experiment is T1, ITK (Homo sapiens, UniProt Q08881).
T1 construct: purchased Signalchem I13-11G-10
T1 sequence (Q08881 1-620): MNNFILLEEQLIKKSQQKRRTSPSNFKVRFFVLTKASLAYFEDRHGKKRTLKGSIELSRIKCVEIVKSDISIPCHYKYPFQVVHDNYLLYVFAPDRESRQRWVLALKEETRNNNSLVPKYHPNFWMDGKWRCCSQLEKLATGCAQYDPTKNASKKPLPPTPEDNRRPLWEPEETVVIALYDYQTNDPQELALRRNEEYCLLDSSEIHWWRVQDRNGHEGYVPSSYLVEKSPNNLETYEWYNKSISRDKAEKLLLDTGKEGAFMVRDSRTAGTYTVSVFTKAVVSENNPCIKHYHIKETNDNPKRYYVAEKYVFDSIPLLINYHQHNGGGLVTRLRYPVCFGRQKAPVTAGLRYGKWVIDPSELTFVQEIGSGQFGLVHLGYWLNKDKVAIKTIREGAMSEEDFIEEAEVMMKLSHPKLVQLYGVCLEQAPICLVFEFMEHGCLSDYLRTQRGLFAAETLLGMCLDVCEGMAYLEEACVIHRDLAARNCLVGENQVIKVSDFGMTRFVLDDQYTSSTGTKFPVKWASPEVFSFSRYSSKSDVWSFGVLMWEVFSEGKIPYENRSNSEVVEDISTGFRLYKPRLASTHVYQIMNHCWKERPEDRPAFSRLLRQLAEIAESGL
Put plainly: Inhibitory activity against ITK, ADP-Glo Kinase system (Promega). In kind it is biochemical. As for the experimental part:
(§1) Inhibitory activities against BTK and ITK were measured for the compounds prepared in the above Examples as follows.
(§2) The inhibitory activities against BTK and ITK were evaluated using 'ADP-Glo™ Kinase system' (Promega Corporation). In the case of this evaluation method, activation was measured by quantifying the amount of ADP produced during the kinase reaction, which was utilized to measure the inhibitory activities against BTK and ITK.
(§3) Specifically, the inhibitory activities against BTK and ITK were measured using BTK kinase (Signalchem, B10-10H), ITK kinase (Signalchem, I13-11G-10), and ADP-Glo kinase assay kit (Promega, V9102). Recombinant purified human BTK and ITK were diluted with 1 x kinase reaction buffer (40 mM Tris-Cl, pH 7.5, 20 mM MgCl2, 0.1 mg/mL BSA, 2 mM MnCl2 and 50 uM DTT) and added to a 96 well plate (ITK: final concentration of 4 ng per reaction/BTK: final concentration of 10 ng per reaction). The compounds prepared in the previous Examples were treated so as to be finally a 1% DMSO aqueous solution, and a substrate cocktail containing ATP (1mM or Km ATP (BTK: 10 uM /ITK: 25uM)) and 0.2 ug/ul of Poly (Glu4,Tyr1) peptide (BTK and ITK final concentration) in the total 25 uL reactants was added to a 96-well plate to initiate enzymatic reaction. After incubation (30°C) for 1 hour, equivalent volume (25 uL per reaction) of ADP Glo was added, and incubated (30°C) for 40 minutes at room temperature. Then, a kinase detection reagent (45 uL per reaction) was added, and incubated (30°C) for 30 minutes at room temperature. The kinase activity was measured by chemiluminescence according to the instructions of ADP Glo kinase assay kit, and the inhibitory activity of the compounds according to the present disclosure was calculated. For the analysis of the results of each compound, Microsoft Excel was used, and IC50 values were calculated by GraphPad Prism software.

Another experiment concerns the target T2, BTK (Homo sapiens, UniProt Q06187).
T2 construct: purchased Signalchem B10-10H
Put plainly: Inhibitory activity against BTK, ADP-Glo Kinase system (Promega). In kind it is biochemical. How it is done: as §1, §2, §3
(In general: In ADP-Glo the light output rises with the ADP produced.)

Where [1] appears, read: Km ATP (ITK: 25uM), read-out: ITK IC50(nM) Km ATP.
[2] abbreviates: Km ATP (BTK: 10 uM), read-out: BTK IC50(nM) Km ATP.
Where [3] appears, read: 1mM ATP, read-out: ITK IC50(nM) 1mM ATP.
The mark [4] stands for this setting: 1mM ATP, read-out: BTK IC50(nM) 1mM ATP.

Where two headings read alike, the source gives them in different places.

Usually IC50 stands for the concentration at which inhibition is half-maximal.

T2 sequence (Q06187 whole entry): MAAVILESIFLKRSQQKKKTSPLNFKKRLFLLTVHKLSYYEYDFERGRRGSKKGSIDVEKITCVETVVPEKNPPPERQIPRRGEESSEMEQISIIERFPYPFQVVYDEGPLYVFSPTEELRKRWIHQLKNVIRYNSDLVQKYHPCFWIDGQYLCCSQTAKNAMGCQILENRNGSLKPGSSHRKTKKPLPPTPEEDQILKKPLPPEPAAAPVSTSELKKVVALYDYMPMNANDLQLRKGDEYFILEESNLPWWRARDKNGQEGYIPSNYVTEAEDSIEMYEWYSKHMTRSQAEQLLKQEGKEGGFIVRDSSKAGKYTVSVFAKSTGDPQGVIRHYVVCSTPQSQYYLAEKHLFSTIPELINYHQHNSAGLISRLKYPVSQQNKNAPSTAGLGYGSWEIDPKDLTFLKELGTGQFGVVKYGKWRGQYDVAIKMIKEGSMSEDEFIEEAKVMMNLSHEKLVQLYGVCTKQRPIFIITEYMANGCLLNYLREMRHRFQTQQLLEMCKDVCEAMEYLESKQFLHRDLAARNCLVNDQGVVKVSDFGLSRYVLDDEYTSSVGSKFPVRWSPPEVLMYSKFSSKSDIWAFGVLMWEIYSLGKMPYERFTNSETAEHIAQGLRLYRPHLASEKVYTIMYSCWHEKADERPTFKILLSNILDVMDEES

Regarding `C=CC(=O)N1CC=C(c2nc(Nc3ncc(C)s3)cc3c2ccn3C)CC1` [Example 1, 1-(4-(1-methyl-6-((5-methylthiazol-2-yl)amino)-1H-pyrrolo[3,2-c]pyridin-4-yl)-3,6-dihydropyridin-1(2H)-yl)prop-2-en-1-one], the half-inhibitory concentration (IC50) on ITK (setting [1]) and at BTK (setting [2]) was no more than 20 nM in each case.

Take `C=CC(=O)N1C[C@H](F)[C@H](Oc2nc(Nc3cc(F)ccc3C)cc3c2ccn3C)C1` [Example 139, 1-((3S,4R)-3-fluoro-4-((6-((5-fluoro-2-methylphenyl)amino)-1-methyl-1H-pyrrolo[3,2-c]pyridin-4-yl)oxy)pyrrolidin-1-yl)prop-2-en-1-one]: the IC50 at ITK (setting [3]) and at BTK (setting [4]) was greater than 500 nM each time.

Regarding `C=CC(=O)N1CCC2(CC(Oc3nc(Nc4ncc(C)s4)cc4c3ccn4CC(C)C)C2)C1` (stereo not shown) [Example 202, 1-(2-((1-isobutyl-6-((5-methylthiazol-2-yl)amino)-1H-pyrrolo[3,2-c]pyridin-4-yl)oxy)-6-azaspiro[3.4]octan-6-yl)prop-2-en-1-one], the IC50 on ITK (setting [3]) and at BTK (setting [4]) was 100 to 500 nM in each case.

Regarding `C=CC(=O)Nc1ccc(F)c(-c2nc(Nc3ncc(C)s3)cc3c2ccn3[C@@H](C)CC)c1` [Example 68, (S)-N-(3-(1-(sec-butyl)-6-((5-methylthiazol-2-yl)amino)-1H-pyrrolo[3,2-c]pyridin-4-yl)-4-fluorophenyl)acrylamide], the IC50 at ITK (setting [3]) was 20 to 100 nM; on BTK (setting [4]), no more than 20 nM.

As for `C=CC(=O)N1CC=C(c2nc(Nc3ncc(C)s3)cc3c2ccn3CC2CCCC2)CC1` [Example 10, 1-(4-(1-(cyclopentylmethyl)-6-((5-methylthiazol-2-yl)amino)-1H-pyrrolo[3,2-c]pyridin-4-yl)-3,6-dihydropyridin-1(2H)-yl)prop-2-en-1-one], the figures for the concentration for half-maximal inhibition (IC50) on ITK (setting [1]) and at BTK (setting [2]) were 20 to 100 nM and no more than 20 nM, respectively.

For `C=CC(=O)N1CC[C@@H]1COc1nc(Nc2ncc(C)s2)cc2c1ccn2C(C)C` [Example 90, (R)-1-(2-(((1-isopropyl-6-((5-methylthiazol-2-yl)amino)-1H-pyrrolo[3,2-c]pyridin-4-yl)oxy)methyl)azetidin-1-yl)prop-2-en-1-one], the IC50 at ITK (setting [3]) and at BTK (setting [4]) was no more than 20 nM each time.

Turning to `C=CC(=O)N1CC[C@H](Oc2nc(Nc3cc(C)ncn3)cc3c2ccn3CC(C)C)C1` [Example 104, (S)-1-(3-((1-isobutyl-6-((6-methylpyrimidin-4-yl)amino)-1H-pyrrolo[3,2-c]pyridin-4-yl)oxy)pyrrolidin-1-yl)prop-2-en-1-one], the half-inhibitory concentration (IC50) on ITK (setting [3]) and at BTK (setting [4]) was 20 to 100 nM throughout.

Consider `C=CC(=O)N1C[C@H](F)[C@H](Oc2nc(Nc3ncc(C)s3)cc3c2ccn3CC2CCCC2)C1` [Example 132, 1-((3R,4S)-3-((1-(cyclopentylmethyl)-6-((5-methylthiazol-2-yl)amino)-1H-pyrrolo[3,2-c]pyridin-4-yl)oxy)-4-fluoropyrrolidin-1-yl)prop-2-en-1-one], for which the half-maximal inhibitory concentration (IC50) on ITK (setting [3]) and at BTK (setting [4]) was no more than 20 nM each time.

`C=CC(=O)Nc1cc(-c2nc(Nc3ncc(C)s3)cc3c2ccn3CC(F)F)ccc1F` [Example 76, N-(5-(1-(2,2-difluoroethyl)-6-((5-methylthiazol-2-yl)amino)-1H-pyrrolo[3,2-c]pyridin-4-yl)-2-fluorophenyl)acrylamide]: the values for the IC50 at ITK (setting [1]) and on BTK (setting [2]) were 20 to 100 nM and no more than 20 nM, respectively.

Take `C=CC(=O)N1CC[C@H](Oc2nc(Nc3cc(C)[nH]n3)cc3c2ccn3C(C)C)C1` [Example 194, (S)-1-(3-((1-isopropyl-6-((5-methyl-1H-pyrazol-3-yl)amino)-1H-pyrrolo[3,2-c]pyridin-4-yl)oxy)pyrrolidin-1-yl)prop-2-en-1-one]: the 50% inhibitory concentration (IC50) was 20 to 100 nM on ITK (setting [3]) and no more than 20 nM at BTK (setting [4]).

As to `C=CC(=O)N1CC[C@H](Oc2nc(Nc3ncc(CC)s3)cc3c2ccn3CC(C)C)C1` [Example 122, (S)-1-(3-((6-((5-ethylthiazol-2-yl)amino)-1-isobutyl-1H-pyrrolo[3,2-c]pyridin-4-yl)oxy)pyrrolidin-1-yl)prop-2-en-1-one], the half-maximal inhibitory concentration (IC50) at ITK (setting [1]) and at BTK (setting [2]) was no more than 20 nM each time.

For `C=CC(=O)N1C[C@@H](Oc2nc(Nc3ncc(C)s3)cc3c2ccn3CC)C[C@@H]1C` [Example 186, 1-((2S,4S)-4-((1-ethyl-6-((5-methylthiazol-2-yl)amino)-1H-pyrrolo[3,2-c]pyridin-4-yl)oxy)-2-methylpyrrolidin-1-yl)prop-2-en-1-one], the IC50 at ITK (setting [3]) and at BTK (setting [4]) was no more than 20 nM throughout.

Consider `C=CC(=O)N1C[C@@H](Oc2nc(Nc3ncc(C)s3)cc3c2ccn3C2CCCC2)C[C@@H]1C` [Example 164, 1-((2S,4S)-4-((1-cyclopentyl-6-((5-methylthiazol-2-yl)amino)-1H-pyrrolo[3,2-c]pyridin-4-yl)oxy)-2-methylpyrrolidin-1-yl)prop-2-en-1-one], for which the half-maximal inhibitory concentration (IC50) on ITK (setting [3]) was in the range of 100 to 500 nM; on BTK (setting [4]) it was 20 to 100 nM.

For `C=C(F)C(=O)N1CC[C@H](Oc2nc(Nc3ncc(C)s3)cc3c2ccn3CC(C)C)C1` [Example 224, (S)-2-fluoro-1-(3-((1-isobutyl-6-((5-methylthiazol-2-yl)amino)-1H-pyrrolo[3,2-c]pyridin-4-yl)oxy)pyrrolidin-1-yl)prop-2-en-1-one], the IC50 on ITK (setting [3]) and at BTK (setting [4]) was greater than 500 nM throughout.

As to `C=CC(=O)N1CC[C@H](Oc2nc(Nc3ncc(C)s3)cc3c2ccn3C)C1` [Example 130, (S)-1-(3-((1-methyl-6-((5-methylthiazol-2-yl)amino)-1H-pyrrolo[3,2-c]pyridin-4-yl)oxy)pyrrolidin-1-yl)prop-2-en-1-one], the IC50 at ITK (setting [3]) and on BTK (setting [4]) was no more than 20 nM throughout.

With `C=CC(=O)N1CC[C@H](Oc2nc(Nc3nccnc3OC)cc3c2ccn3C(C)C)C1` [Example 184, (S)-1-(3-((1-isopropyl-6-((3-methoxypyrazin-2-yl)amino)-1H-pyrrolo[3,2-c]pyridin-4-yl)oxy)pyrrolidin-1-yl)prop-2-en-1-one], the IC50 at ITK (setting [3]) and on BTK (setting [4]) was greater than 500 nM each time.

`C=CC(=O)Nc1cccc(-c2nc(Nc3ncc(C)s3)cc3c2ccn3C(C)C)c1C` [Example 58, N-(3-(1-isopropyl-6-((5-methylthiazol-2-yl)amino)-1H-pyrrolo[3,2-c]pyridin-4-yl)-2-methylphenyl)acrylamide]: the IC50 on ITK (setting [3]) and on BTK (setting [4]) was no more than 20 nM in each case.

Regarding `C=CC(=O)Nc1cccc(-c2nc(Nc3ncc(C)s3)cc3c2ccn3CC2CCOCC2)c1F` [Example 73, N-(2-fluoro-3-(6-((5-methylthiazol-2-yl)amino)-1-((tetrahydro-2H-pyran-4-yl)methyl)-1H-pyrrolo[3,2-c]pyridin-4-yl)phenyl)acrylamide], the IC50 on ITK (setting [1]) and at BTK (setting [2]) was no more than 20 nM in each case.

On to `C=CC(=O)N1C[C@H](Oc2nc(Nc3ncc(C)s3)cc3c2ccn3CC(C)C)[C@@H](F)C1` [Example 134, 1-((3S,4S)-3-fluoro-4-((1-isobutyl-6-((5-methylthiazol-2-yl)amino)-1H-pyrrolo[3,2-c]pyridin-4-yl)oxy)pyrrolidin-1-yl)prop-2-en-1-one], for which the IC50 on ITK (setting [3]) and on BTK (setting [4]) was greater than 500 nM throughout.

Regarding `C=CC(=O)N1C2C=C(c3nc(Nc4ncc(C)s4)cc4c3ccn4CC(C)C)CC1CCC2` (stereo not shown) [Example 38, 1-(3-(1-isobutyl-6-((5-methylthiazol-2-yl)amino)-1H-pyrrolo[3,2-c]pyridin-4-yl)-9-azabicyclo[3.3.1]non-2-en-9-yl)prop-2-en-1-one], the concentration for half-maximal inhibition (IC50) on ITK (setting [3]) and on BTK (setting [4]) was no more than 20 nM throughout.

(Values after patent EP4707277A1, “NOVEL HETEROCYCLIC AMINE DERIVATIVES AND PHARMACEUTICAL COMPOSITION COMPRISING SAME” (Daewoong Pharmaceutical Co., Ltd., priority 2023, dated 2024).)
